We go through eleven molecules from patent publication EP4603105A1, “PHARMACEUTICAL COMPOSITION CONTAINING CYCLIC COMPOUND HAVING SELECTIVE KRAS INHIBITORY EFFECT AGAINST HRAS AND NRAS” (CHUGAI SEIYAKU KABUSHIKI KAISHA, priority 2022, dated 2024).

The target of assay [1] is GDP-bound NRAS wild-type protein (Homo sapiens, UniProt P01111). Description: Binding to NRAS by surface plasmon resonance (SPR), KD and KD ratio to KRAS. A digest of the protocol:
(§1)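 Single-cycle kinetics on GDP-loaded biotin-Avi RAS captured to ~100–300 RU; 75 s ascending injections, 100 µL/min, 30°C. HBS pH 7.4 + 10 mM MgCl2/10 µM GDP/4% DMSO. 1:1 fit, KD.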
A general note: In SPR one partner is held on a chip, and binding of the other changes the refractive index at the surface.

In a further assay the target is HRAS wild-type protein (Homo sapiens, UniProt P01112). Briefly: Binding to HRAS by surface plasmon resonance (SPR), KD and KD ratio to KRAS. A digest of the protocol: as §1
Sequence of HRAS wild-type protein (P01112 whole entry): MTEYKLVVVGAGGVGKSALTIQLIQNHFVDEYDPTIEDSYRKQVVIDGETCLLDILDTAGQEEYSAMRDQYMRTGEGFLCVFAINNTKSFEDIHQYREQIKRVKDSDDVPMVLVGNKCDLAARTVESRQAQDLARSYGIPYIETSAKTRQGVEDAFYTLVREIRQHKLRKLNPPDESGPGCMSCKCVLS
Assay [2] relates to human lung cancer strain NCI-H441. Type of assay: cell-based. In outline: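 Proliferation was scored by […] measured after the reagent was added to cultures kept at 37°C in 5% carbon dioxide.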
The mark [3] stands for this setting: ratio of the KD value with respect to GDP-bound NRAS wild-type protein to the KD value with respect to KRAS.
[4] abbreviates: ratio of the KD value with respect to HRAS wild-type protein to the KD value with respect to KRAS.
Setting [5] is: ratio of KD for GDP-bound NRAS wild-type protein to KD for KRAS.
Where [6] appears, read: ratio of KD for HRAS wild-type protein to KD for KRAS.
Where [7] appears, read: ratio of KD value for GDP-bound NRAS wild-type protein to KD value for KRAS (SPR).
[8] abbreviates: ratio of KD value for HRAS wild-type protein to KD value for KRAS (SPR).

*1 amine or outer side, *2 acyl side, *3 side chain or, on linkers, in order; H or OH if unused. Where a SMILES comes first, the peptide text is derived from it. Bridges are numbered along the chain shown (N, C = ends). [ ]: non-standard residue; d: D form. The star is where a group is joined. hPhe(3-Cl-4-CF3) = N[C@@H](CCc1ccc(C(F)(F)F)c(Cl)c1)C(=O)O; NPrPhe(4-CF3) = CCCN[C@@H](Cc1ccc(C(F)(F)F)cc1)C(=O)O; X46 = C=CCCN([C@@H](Cc1ccc(C)cc1)C(=O)[*:2])[*:1]; NEtAsp = CCN([C@@H](CC(=O)[*:3])C(=O)[*:2])[*:1]; NMeGly(cPent) = CN[C@H](C(=O)O)C1CCCC1; NMeAllylGly = C=CC[C@H](NC)C(=O)O; NEtLeu = CCN[C@@H](CC(C)C)C(=O)O; NMeD = CN[C@@H](CC(=O)O)C(=O)O; NMeL = CN[C@@H](CC(C)C)C(=O)O; Morpholide = C1CN(*)CCO1; NMeA = CN[C@@H](C)C(=O)O; Ac5c = NC1(C(=O)O)CCCC1; Aze = O=C(O)[C@@H]1CCN1; Ac4c = NC1(C(=O)O)CCC1; Sar = CNCC(=O)O

Sequence of GDP-bound NRAS wild-type protein (P01111 whole entry): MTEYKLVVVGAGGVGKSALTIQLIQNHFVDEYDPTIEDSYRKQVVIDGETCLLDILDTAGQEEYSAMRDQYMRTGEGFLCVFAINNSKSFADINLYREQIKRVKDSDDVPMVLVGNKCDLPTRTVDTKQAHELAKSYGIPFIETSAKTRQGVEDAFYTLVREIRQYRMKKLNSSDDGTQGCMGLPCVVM

For the molecule `CCCN1C(=O)CN(C)C(=O)CN(C)C(=O)[C@H]([C@@H](C)CC)NC(=O)[C@H](CC(C)C)N(C)C(=O)C[C@@H](C(=O)N(C)C)N(CC)C(=O)[C@H](C2CCCC2)N(C)C(=O)C2(CCC2)NC(=O)[C@@H]2CCCN2C(=O)[C@H](CCc2ccc(C(F)(F)F)c(Cl)c2)NC(=O)CN(C)C(=O)[C@@H]1Cc1ccc(C(F)(F)F)cc1` [PP1956] ([NMeL]I[Sar][Sar][NPrPhe(4-CF3)][Sar][hPhe(3-Cl-4-CF3)]P[Ac4c][NMeGly(cPent)][NEtAsp]-NMe2; lactam N-11), the “NRAS /KRAS” value in assay [1] (setting [3]) is “B (a compound having 3 or more and less than 10 is denoted as B)”. For the same molecule, at HRAS wild-type protein (setting [4]), the “HRAS /KRAS” value was “B (a compound having 3 or more and less than 10 is denoted as B)”. Moreover, half-maximal inhibition in assay [2] (IC50) required 2.2 nM.

Take `CC[C@H](C)[C@@H]1NC(=O)[C@H](CC(C)C)N(C)C(=O)C[C@@H](C(=O)N2CCOCC2)N(C)C(=O)[C@H](C2CCCC2)N(C)C(=O)C2(CCCC2)NC(=O)[C@@H]2CCCN2C(=O)[C@H](CCc2ccc(C(F)(F)F)c(Cl)c2)NC(=O)CN(C)C(=O)[C@H](Cc2ccc(OC)cc2)N2CCCCC[C@@H](C2=O)N(C)C(=O)CN(C)C1=O` [PP0614]: the “NRAS /KRAS” value in assay [1] (setting [3]) is “B (a compound having 3 or more and less than 10 is denoted as B)”. Besides, the “HRAS /KRAS” value on HRAS wild-type protein (setting [4]) is “B (a compound having 3 or more and less than 10 is denoted as B)”. For the same molecule, in assay [2], inhibition was half-maximal at 110 nM (IC50).

Turning to `CC[C@H](C)[C@@H]1NC(=O)[C@H](CC(C)C)N(C)C(=O)C[C@@H](C(=O)N2CCOCC2)N(C)C(=O)[C@H](C2CCCC2)N(C)C(=O)C2(CCCC2)NC(=O)[C@@H]2CCCN2C(=O)[C@H](CCc2cc(F)c(C(F)(F)F)c(F)c2)NC(=O)CN(C)C(=O)[C@H](Cc2ccc(C(F)(F)F)cc2)N2CCCC[C@@H](C2=O)N(C)C(=O)[C@H](C)N(C)C1=O` [PP0544], in assay [1] (setting [3]), the “NRAS /KRAS” value is “B (a compound having 3 or more and less than 10 is denoted as B)”. At HRAS wild-type protein (setting [4]), the “HRAS /KRAS” value is “B (a compound having 3 or more and less than 10 is denoted as B)”. In assay [2], the IC50 (commonly the concentration that gives 50% inhibition) is 647 nM.

Take `C=CCCN1C(=O)[C@H](CC=C)N(C)C(=O)CN(C)C(=O)[C@H]([C@@H](C)CC)NC(=O)[C@H](CC(C)C)N(C)C(=O)C[C@@H](C(=O)N2CCOCC2)N(C)C(=O)[C@H](C2CCCC2)N(C)C(=O)C2(CCCC2)NC(=O)[C@@H]2CCCN2C(=O)[C@H](CCc2ccc(C(F)(F)F)c(Cl)c2)NC(=O)CN(C)C(=O)[C@@H]1Cc1ccc(C)cc1` [PP0140] ([NMeL]I[Sar][NMeAllylGly][X46][Sar][hPhe(3-Cl-4-CF3)]P[Ac5c][NMeGly(cPent)][NMeD]-Morpholide; lactam N-11): in assay [1] (setting [5]), the “NRAS /KRAS” value is “C (A compound having a KD ratio of 0.1 or more and less than 3 is denoted as C)”. Also, at HRAS wild-type protein (setting [6]), the “HRAS /KRAS” value is “B (a compound having 3 or more and less than 10 is denoted as B)”. Also, in assay [2], the IC50 stood at 712 nM.

As for `CCCN1C(=O)[C@@H]2CCN2C(=O)[C@H](C)N(C)C(=O)[C@H]([C@@H](C)CC)NC(=O)[C@H](CC(C)C)N(CC)C(=O)C[C@@H](C(=O)N2CCOCC2)N(C)C(=O)[C@H](C2CCCC2)N(C)C(=O)C2(CCCC2)NC(=O)[C@@H]2CCCN2C(=O)[C@H](CCc2ccc(C(F)(F)F)c(Cl)c2)NC(=O)CN(C)C(=O)[C@@H]1Cc1ccc(C(F)(F)F)cc1` [PP0151] ([NEtLeu]I[NMeA][Aze][NPrPhe(4-CF3)][Sar][hPhe(3-Cl-4-CF3)]P[Ac5c][NMeGly(cPent)][NMeD]-Morpholide; lactam N-11), in assay [1] (setting [5]), the “NRAS /KRAS” value is “C (A compound having a KD ratio of 0.1 or more and less than 3 is denoted as C)”. Moreover, the “HRAS /KRAS” value at HRAS wild-type protein (setting [6]) was “C (A compound having a KD ratio of 0.1 or more and less than 3 is denoted as C)”. The molecule also yielded an IC50 in assay [2] of 5.3 nM.

`CCO[C@@H]1C[C@H]2C(=O)NC3(CC(F)(F)C3)C(=O)N(C)[C@@H](C(CC)CC)C(=O)N3CCC[C@@H]3CC(=O)N(C)[C@@H](CC3CC3)C(=O)N[C@@H]([C@@H](C)CC)C(=O)N(C)CC(=O)N(C)[C@H]3C/C=C\CCN(C3=O)[C@@H](Cc3ccc(C(F)(F)F)cc3)C(=O)N(C)CC(=O)N[C@@H](CCc3cc(F)c(C(F)(F)F)c(F)c3)C(=O)N2C1` [PP1614]: in assay [1] (setting [7]), the “NRAS /KRAS” value is “A (a compound having 10 or more and less than 20 is denoted as A)”. Moreover, the “HRAS /KRAS” value at HRAS wild-type protein (setting [8]) is “A (a compound having 10 or more and less than 20 is denoted as A)”. The molecule also registered an IC50 in assay [2] of 54.2 nM.

For `CCO[C@@H]1C[C@H]2C(=O)NC3(CC(C)(C)C3)C(=O)N(C)[C@@H](C3CCCC3)C(=O)N(C)[C@H](C(=O)N3CCCC3)CC(=O)N(C)[C@H]3CCCCCc4ccc(cc4)C[C@@H](C(=O)N(C)CC(=O)N[C@@H](CCc4ccc(C(F)(F)F)c(OC)c4)C(=O)N2C1)N1CC/C=C\C[C@@H](C1=O)N(C)C(=O)CN(C)C(=O)[C@H]([C@@H](C)CC)NC3=O` [PP3037], the “NRAS /KRAS” value in assay [1] (setting [5]) is “A (a compound having 10 or more and less than 20 is denoted as A)”. Also, the “HRAS /KRAS” value at HRAS wild-type protein (setting [6]) was “B (a compound having 3 or more and less than 10 is denoted as B)”. This molecule registered an IC50 in assay [2] of 3.4 nM.

As to `CC[C@H](C)[C@@H]1NC(=O)[C@H](CC(C)C)N(C)C(=O)C[C@@H](C(=O)N(C)C)N(C)C(=O)[C@H](C2CCCC2)N(C)C(=O)C2(CCC2)NC(=O)[C@@H]2C[C@H](C)CN2C(=O)[C@H](CCc2cc(F)c(C(F)(F)F)c(F)c2)NC(=O)CN(C)C(=O)[C@H](Cc2ccc(C)cc2)N2CC/C=C\C[C@@H](C2=O)N(C)C(=O)CN(C)C1=O` [PP1864], in assay [1] (setting [7]), the “NRAS /KRAS” value was “A (a compound having 10 or more and less than 20 is denoted as A)”. At HRAS wild-type protein (setting [8]), the “HRAS /KRAS” value is “B (a compound having 3 or more and less than 10 is denoted as B)”. Moreover, the IC50 in assay [2] came out at 10.2 nM.

For the molecule `CCO[C@@H]1C[C@H]2C(=O)NC3(CCC3)C(=O)N(C)[C@@H](C3CCCC3)C(=O)N(C)[C@H](C(=O)N(C)C)CC(=O)N(C)[C@@H](CCOC)C(=O)N[C@@H]([C@@H](C)CC)C(=O)N(C)CC(=O)N(C)[C@H]3CCCCN(C3=O)[C@@H](Cc3ccc(C(F)(F)F)cc3)C(=O)N(C)CC(=O)N[C@@H](CCc3cc(F)c(C(F)(F)F)c(F)c3)C(=O)N2C1` [PP0705], in assay [1] (setting [3]), the “NRAS /KRAS” value was “C (A compound having a KD ratio of 0.1 or more and less than 3 is denoted as C)”. The “HRAS /KRAS” value on HRAS wild-type protein (setting [4]) was “C (A compound having a KD ratio of 0.1 or more and less than 3 is denoted as C)”. For the same molecule, in assay [2], 17.5 nM corresponded to half-maximal inhibition (IC50).

In the case of `CCO[C@@H]1C[C@H]2C(=O)N(C)C3(CCC3)C(=O)N(C)[C@@H](C3CCCC3)C(=O)N(C)[C@H](C(=O)N(C)C)CC(=O)N(C)[C@@H](CC)C(=O)N[C@@H]([C@@H](C)CC)C(=O)N3CCC[C@H]3C(=O)N(C)[C@H]3C/C=C\CCN(C3=O)[C@@H](Cc3ccc(C)cc3)C(=O)N(C)CC(=O)N[C@@H](CCc3cc(F)c(C(F)(F)F)c(F)c3)C(=O)N2C1` [PP1785], the “NRAS /KRAS” value in assay [1] (setting [7]) is “A (a compound having 10 or more and less than 20 is denoted as A)”. Also, the “HRAS /KRAS” value at HRAS wild-type protein (setting [8]) was “A (a compound having 10 or more and less than 20 is denoted as A)”. Further, the concentration for half-maximal inhibition (IC50) in assay [2] worked out at 6.9 nM.

Turning to `CC[C@H](C)[C@@H]1NC(=O)[C@H](C(C)C)N(C)C(=O)C[C@@H](C(=O)N(C)C)N(C)C(=O)[C@H](C2CCCC2)N(C)C(=O)C2(CC(C)(C)C2)NC(=O)[C@@H]2C[C@H](C)CN2C(=O)[C@H](CCc2ccc(C(F)(F)F)c(OC)c2)NC(=O)CN(C)C(=O)[C@H](Cc2ccc(C(F)(F)F)cc2)N2CC/C=C\C[C@@H](C2=O)N(C)C(=O)CN(C)C1=O` [PP2005], the “NRAS /KRAS” value in assay [1] (setting [3]) was “A (a compound having 10 or more and less than 20 is denoted as A)”. For the same molecule, the “HRAS /KRAS” value on HRAS wild-type protein (setting [4]) was “A (a compound having 10 or more and less than 20 is denoted as A)”. In assay [2], this molecule registered a concentration for half-maximal inhibition (IC50) of 10.7 nM.
